A short description of series [1]: Aqueous solubility of the compound. Format: physicochemical. The settings on record: water.
In series [2] the target is Substance-P receptor (Homo sapiens) (UniProt P25103). Nature of the series: Antagonist activity at NK1 (unknown origin).
Series [3] has as its target T1, Substance-K receptor (Homo sapiens) (UniProt P21452).
T1 sequence (whole entry): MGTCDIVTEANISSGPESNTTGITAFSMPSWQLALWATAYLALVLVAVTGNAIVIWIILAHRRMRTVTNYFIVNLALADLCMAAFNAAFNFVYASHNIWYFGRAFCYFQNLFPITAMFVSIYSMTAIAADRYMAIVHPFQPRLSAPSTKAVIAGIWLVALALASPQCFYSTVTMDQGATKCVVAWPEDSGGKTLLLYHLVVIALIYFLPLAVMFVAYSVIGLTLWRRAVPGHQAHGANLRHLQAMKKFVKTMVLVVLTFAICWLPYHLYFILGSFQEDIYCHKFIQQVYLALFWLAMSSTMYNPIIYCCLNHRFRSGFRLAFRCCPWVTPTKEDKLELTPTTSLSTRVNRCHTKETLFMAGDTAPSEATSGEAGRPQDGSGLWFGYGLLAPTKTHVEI
Nature of the series: Antagonist activity at NK2 (unknown origin).

In series [4] the target is T2, Neuromedin-K receptor (Homo sapiens) (UniProt P29371).
T2 sequence (whole entry): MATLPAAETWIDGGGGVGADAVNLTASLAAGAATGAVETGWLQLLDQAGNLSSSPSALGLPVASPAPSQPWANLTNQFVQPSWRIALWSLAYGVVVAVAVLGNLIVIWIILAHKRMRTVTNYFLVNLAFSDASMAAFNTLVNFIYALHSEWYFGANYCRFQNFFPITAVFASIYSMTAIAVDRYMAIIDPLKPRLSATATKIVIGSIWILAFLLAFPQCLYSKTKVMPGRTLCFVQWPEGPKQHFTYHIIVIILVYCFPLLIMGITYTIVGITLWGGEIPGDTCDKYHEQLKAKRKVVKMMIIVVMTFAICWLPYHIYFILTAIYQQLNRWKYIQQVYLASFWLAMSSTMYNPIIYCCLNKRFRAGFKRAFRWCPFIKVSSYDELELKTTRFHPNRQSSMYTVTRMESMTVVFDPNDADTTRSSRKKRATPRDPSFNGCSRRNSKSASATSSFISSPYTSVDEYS
Nature of the series: Antagonist activity at NK3 (unknown origin).

≈ marks a conversion by molar mass, not a printed value. A value given as a limit tells only on which side of the number the result lay.

The values that follow come from ChEMBL document CHEMBL4610064, “DNA-Encoded Library Screening as Core Platform Technology in Drug Discovery: Its Synthetic Method Development and Applications in DEL Synthesis” (J Med Chem, 2020).

Sequence of Substance-P receptor (Homo sapiens) (P25103 whole entry): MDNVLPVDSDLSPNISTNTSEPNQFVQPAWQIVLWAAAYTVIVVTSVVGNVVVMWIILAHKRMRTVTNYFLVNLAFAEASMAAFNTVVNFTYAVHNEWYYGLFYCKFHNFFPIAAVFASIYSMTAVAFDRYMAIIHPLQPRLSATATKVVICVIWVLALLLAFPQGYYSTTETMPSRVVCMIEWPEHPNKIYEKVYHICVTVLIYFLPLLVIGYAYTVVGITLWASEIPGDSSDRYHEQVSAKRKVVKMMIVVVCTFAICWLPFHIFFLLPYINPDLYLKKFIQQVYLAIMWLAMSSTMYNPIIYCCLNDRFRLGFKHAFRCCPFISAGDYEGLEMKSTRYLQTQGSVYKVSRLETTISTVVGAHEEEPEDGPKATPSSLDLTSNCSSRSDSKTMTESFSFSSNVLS

As for `CNC(=O)CN1CN(c2ccccc2)C2(CCN(C(=O)c3ccc4[nH]ncc4c3)CC2)C1=O`, the solubility in series [1] came out at 1.4 µg/mL (≈ 3.14 µM).

As for `CCn1c(-c2ccccc2-c2ccc(C)cc2C)nc2cc(C(=O)NC)ccc21`, the figures for the fKi in series [2], in series [3] and in series [4] were > 1000 nM, > 1000 nM and 1.2 nM, respectively.

Consider `Cn1c(-c2c[nH]c3cc(C#N)ccc23)nc2cc(C(=O)N3CCOC(c4ccccc4)C3CO)ccc21` (stereo not drawn), for which the fKi in series [2] is > 1000 nM; in series [3], > 1000 nM; in series [4], 1.2 nM.

In series [1], `O=C(CN1C(=O)C2(CCN(C(=O)c3ccc4[nH]ncc4n3)CC2)c2c(Br)cccc21)NCC(F)(F)F` displayed a solubility of 103 µg/mL (≈ 182 µM).

In general, solubility refers to the concentration that dissolves in the medium under given conditions.
